Some results are limits rather than exact numbers.

The target in experiment [1] is Prostaglandin G/H synthase 1 (Homo sapiens, UniProt P23219). In kind it is functional.
Experiment [2] has as its target 3',5'-cyclic-AMP phosphodiesterase 4A (Homo sapiens, UniProt P27815). It counts as functional.
Experiment [3] has as its target T1, Alpha-2A adrenergic receptor (Homo sapiens, UniProt P08913).
T1 sequence (P08913 whole entry): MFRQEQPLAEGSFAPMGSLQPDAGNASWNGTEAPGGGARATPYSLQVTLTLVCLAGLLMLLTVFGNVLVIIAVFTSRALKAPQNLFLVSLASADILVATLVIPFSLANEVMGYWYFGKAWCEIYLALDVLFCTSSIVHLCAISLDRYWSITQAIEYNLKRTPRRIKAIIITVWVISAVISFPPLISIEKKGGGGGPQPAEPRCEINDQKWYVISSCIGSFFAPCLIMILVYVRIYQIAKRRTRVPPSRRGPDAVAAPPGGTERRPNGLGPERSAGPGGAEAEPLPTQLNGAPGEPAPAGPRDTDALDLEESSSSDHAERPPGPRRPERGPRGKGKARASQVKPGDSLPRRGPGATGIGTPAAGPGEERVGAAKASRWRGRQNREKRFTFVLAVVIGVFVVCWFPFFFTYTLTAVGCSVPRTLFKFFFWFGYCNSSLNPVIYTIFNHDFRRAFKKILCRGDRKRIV

The target in experiment [4] is cGMP-inhibited 3',5'-cyclic phosphodiesterase 3A (Homo sapiens, UniProt Q14432). It counts as functional.
In experiment [5] the target is 5-hydroxytryptamine receptor 2B (Homo sapiens, UniProt P41595). In kind it is functional, cell-based.
The target of a further experiment is T2, Progesterone receptor (Homo sapiens, UniProt P06401).
T2 sequence (P06401 whole entry): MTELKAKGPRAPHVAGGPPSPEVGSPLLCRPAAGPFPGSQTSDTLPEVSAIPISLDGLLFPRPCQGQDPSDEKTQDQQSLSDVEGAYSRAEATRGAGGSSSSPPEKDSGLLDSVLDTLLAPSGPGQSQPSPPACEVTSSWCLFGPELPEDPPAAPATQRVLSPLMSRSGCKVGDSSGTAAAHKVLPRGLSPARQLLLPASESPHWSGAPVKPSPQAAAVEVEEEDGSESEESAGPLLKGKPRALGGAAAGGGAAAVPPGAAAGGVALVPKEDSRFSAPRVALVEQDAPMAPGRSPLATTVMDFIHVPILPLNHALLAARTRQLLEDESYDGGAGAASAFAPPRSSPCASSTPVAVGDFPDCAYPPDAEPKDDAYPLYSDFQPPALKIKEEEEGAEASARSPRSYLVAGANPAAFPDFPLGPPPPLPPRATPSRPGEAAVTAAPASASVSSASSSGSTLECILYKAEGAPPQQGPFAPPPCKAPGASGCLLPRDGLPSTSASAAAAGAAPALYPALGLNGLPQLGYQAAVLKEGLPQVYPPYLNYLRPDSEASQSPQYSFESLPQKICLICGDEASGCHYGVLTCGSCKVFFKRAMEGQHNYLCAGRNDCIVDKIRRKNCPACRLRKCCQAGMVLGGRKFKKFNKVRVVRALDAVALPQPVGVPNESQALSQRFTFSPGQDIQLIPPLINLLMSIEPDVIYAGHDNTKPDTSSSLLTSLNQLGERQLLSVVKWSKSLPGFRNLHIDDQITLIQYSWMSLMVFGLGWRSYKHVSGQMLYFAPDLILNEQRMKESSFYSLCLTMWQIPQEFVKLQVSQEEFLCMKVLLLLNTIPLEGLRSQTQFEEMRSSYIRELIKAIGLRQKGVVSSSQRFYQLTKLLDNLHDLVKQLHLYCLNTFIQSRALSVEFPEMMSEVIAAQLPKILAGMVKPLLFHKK

The target in a further experiment is D(3) dopamine receptor (Homo sapiens, UniProt P35462).
The target in the next experiment is T3, Adenosine receptor A3 (Homo sapiens, UniProt P0DMS8).
T3 sequence (P0DMS8 whole entry): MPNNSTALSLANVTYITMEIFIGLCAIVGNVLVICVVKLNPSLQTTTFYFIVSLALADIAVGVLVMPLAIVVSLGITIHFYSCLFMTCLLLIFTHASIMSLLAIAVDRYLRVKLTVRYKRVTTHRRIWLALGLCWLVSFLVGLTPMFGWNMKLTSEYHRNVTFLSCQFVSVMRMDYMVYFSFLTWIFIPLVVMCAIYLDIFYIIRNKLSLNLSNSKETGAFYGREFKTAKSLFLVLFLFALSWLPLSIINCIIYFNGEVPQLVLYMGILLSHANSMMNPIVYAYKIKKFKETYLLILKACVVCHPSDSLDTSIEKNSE

Experiment [6] has as its target Voltage-gated inwardly rectifying potassium channel KCNH2 (Homo sapiens, UniProt Q12809). It counts as functional. The note with it: read-out: AC50.
The target in experiment [7] is Sodium-dependent serotonin transporter (Homo sapiens, UniProt P31645).
In another experiment the target is Prothrombin (Homo sapiens, UniProt P00734). It counts as functional.
For experiment [8], the target named is T4, Muscarinic acetylcholine receptor M2 (Homo sapiens, UniProt P08172).
T4 sequence (P08172 whole entry): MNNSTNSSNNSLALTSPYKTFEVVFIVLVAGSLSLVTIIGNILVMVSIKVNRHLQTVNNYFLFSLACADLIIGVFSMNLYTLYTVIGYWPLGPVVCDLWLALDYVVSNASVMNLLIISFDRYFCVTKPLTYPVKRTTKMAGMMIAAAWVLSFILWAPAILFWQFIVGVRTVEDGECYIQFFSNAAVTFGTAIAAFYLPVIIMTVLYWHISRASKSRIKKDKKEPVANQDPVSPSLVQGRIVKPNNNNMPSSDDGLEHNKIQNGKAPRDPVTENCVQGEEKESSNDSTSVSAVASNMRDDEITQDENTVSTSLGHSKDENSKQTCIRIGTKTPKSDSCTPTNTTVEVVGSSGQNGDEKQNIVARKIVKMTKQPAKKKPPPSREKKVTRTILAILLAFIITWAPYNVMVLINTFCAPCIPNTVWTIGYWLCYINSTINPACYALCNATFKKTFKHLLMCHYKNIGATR
Also: assay procedure not described here.

Sequence of 3',5'-cyclic-AMP phosphodiesterase 4A (P27815 whole entry): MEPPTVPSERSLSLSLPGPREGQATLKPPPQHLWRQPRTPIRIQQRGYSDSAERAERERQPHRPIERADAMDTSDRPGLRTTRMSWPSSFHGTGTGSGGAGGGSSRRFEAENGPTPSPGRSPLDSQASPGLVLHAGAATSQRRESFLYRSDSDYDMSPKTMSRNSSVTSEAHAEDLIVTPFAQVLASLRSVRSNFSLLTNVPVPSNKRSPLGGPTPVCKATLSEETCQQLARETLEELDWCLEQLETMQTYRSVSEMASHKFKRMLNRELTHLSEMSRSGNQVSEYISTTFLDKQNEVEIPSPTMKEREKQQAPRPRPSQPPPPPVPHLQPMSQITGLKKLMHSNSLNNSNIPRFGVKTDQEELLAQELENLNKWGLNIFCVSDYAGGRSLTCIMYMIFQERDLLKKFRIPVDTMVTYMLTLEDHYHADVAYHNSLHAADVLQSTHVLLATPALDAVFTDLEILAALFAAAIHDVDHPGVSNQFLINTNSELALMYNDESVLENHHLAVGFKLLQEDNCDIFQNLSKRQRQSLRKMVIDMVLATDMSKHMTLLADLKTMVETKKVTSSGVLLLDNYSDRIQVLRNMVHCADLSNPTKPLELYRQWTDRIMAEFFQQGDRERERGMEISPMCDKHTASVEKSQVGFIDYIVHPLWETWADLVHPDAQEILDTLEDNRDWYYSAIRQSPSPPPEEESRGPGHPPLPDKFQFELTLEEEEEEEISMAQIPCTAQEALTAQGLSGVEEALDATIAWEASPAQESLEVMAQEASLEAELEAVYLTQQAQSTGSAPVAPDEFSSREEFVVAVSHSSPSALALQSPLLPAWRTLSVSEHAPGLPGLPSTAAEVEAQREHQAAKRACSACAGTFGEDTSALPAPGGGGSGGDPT
Sequence of Sodium-dependent serotonin transporter (P31645 whole entry): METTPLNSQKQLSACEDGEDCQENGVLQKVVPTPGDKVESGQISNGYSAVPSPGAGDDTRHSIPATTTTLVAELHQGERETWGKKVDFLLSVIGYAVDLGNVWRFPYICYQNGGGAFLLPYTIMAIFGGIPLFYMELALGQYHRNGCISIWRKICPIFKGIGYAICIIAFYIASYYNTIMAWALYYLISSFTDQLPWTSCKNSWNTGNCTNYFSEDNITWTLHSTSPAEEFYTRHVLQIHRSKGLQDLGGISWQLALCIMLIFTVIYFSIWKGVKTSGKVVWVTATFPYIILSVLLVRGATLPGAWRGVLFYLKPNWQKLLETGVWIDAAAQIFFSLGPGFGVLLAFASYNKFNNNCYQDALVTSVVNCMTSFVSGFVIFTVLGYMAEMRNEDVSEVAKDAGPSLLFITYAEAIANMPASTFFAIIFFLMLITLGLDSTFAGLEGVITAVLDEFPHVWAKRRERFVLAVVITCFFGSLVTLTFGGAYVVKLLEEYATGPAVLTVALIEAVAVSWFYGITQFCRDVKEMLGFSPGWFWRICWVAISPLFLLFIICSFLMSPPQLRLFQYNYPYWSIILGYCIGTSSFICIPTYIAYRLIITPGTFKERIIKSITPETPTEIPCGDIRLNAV
Sequence of D(3) dopamine receptor (P35462 whole entry): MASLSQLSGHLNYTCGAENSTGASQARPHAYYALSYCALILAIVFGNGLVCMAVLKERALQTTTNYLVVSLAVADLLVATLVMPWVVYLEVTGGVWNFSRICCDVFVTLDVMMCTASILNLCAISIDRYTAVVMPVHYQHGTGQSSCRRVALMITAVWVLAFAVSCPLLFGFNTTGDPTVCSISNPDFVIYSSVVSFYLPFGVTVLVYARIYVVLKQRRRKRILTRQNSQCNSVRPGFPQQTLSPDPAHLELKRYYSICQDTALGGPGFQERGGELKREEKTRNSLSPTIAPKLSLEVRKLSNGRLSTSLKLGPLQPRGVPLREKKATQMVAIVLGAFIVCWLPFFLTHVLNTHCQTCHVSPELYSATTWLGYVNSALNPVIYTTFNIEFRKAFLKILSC
Sequence of Prostaglandin G/H synthase 1 (P23219 whole entry): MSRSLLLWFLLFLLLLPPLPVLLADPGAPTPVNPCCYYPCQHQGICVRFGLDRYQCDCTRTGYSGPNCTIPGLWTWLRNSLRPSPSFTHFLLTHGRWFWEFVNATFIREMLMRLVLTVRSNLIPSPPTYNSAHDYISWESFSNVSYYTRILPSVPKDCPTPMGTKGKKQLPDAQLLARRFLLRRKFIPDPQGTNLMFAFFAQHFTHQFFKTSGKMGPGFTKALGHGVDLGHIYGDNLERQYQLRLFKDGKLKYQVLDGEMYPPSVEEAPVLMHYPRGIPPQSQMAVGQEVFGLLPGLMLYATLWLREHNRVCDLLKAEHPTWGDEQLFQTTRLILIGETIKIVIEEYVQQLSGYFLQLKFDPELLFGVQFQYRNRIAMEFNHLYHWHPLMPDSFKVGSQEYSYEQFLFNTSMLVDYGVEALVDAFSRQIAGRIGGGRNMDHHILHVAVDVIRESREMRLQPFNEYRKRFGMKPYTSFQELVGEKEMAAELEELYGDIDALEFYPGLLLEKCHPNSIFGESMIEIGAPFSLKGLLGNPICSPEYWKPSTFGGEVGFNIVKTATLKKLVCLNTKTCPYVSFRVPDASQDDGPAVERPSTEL
Sequence of Voltage-gated inwardly rectifying potassium channel KCNH2 (Q12809 whole entry): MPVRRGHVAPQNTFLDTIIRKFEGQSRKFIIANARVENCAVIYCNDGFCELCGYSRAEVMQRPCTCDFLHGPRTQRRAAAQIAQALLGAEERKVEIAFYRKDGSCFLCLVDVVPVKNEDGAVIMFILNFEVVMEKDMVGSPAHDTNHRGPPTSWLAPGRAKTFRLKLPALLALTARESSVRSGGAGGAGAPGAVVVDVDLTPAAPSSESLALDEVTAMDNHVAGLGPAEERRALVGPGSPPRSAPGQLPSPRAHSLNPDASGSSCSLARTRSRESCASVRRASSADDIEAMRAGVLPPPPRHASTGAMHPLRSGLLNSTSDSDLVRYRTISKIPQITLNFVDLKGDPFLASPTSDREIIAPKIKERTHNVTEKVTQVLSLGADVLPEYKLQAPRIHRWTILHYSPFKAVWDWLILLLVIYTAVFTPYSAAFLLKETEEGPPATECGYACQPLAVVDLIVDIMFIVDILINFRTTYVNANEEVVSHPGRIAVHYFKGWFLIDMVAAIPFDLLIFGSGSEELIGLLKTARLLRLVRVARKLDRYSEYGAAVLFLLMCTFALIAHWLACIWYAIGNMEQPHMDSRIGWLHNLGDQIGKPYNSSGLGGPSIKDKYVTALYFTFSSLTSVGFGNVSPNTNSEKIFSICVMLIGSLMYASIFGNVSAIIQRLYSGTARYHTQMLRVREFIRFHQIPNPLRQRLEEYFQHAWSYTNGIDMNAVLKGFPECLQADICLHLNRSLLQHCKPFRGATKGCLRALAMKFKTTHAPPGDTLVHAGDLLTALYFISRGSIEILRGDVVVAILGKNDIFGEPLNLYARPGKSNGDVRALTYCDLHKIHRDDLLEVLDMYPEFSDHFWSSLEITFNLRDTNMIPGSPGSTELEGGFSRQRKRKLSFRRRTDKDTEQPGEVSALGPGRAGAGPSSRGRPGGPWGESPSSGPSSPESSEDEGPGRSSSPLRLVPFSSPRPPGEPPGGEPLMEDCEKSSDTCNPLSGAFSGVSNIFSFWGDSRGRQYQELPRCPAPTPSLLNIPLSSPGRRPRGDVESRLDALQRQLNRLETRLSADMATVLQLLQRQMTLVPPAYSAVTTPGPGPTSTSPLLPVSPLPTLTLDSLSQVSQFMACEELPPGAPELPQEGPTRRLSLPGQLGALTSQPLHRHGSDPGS
Sequence of 5-hydroxytryptamine receptor 2B (P41595 whole entry): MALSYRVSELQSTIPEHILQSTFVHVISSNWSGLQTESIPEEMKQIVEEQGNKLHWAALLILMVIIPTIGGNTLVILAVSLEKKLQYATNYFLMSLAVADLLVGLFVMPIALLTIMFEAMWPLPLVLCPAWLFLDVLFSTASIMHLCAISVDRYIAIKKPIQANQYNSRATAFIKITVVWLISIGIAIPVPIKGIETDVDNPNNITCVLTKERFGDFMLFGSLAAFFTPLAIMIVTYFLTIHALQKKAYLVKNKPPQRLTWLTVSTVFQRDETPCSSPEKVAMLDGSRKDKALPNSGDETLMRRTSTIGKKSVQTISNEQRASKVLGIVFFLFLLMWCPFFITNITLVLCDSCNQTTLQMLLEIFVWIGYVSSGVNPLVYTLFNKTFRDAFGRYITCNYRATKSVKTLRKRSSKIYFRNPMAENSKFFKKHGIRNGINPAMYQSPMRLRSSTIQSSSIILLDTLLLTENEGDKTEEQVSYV

For `COC(=O)N[C@H](C(=O)N1CC2(CC2)C[C@H]1c1ncc(-c2ccc3c(c2)C(F)(F)c2cc(-c4ccc5nc([C@@H]6[C@H]7CC[C@H](C7)N6C(=O)[C@@H](NC(=O)OC)C(C)C)[nH]c5c4)ccc2-3)[nH]1)C(C)C`, the AC50 in experiment [1] is greater than 30 µM; in [2], greater than 30 µM; in [3] it was greater than 30 µM; in experiment [4] it was greater than 30 µM; in [5], greater than 30 µM; on Progesterone receptor it was greater than 10 µM. Besides, the AC50 at D(3) dopamine receptor is greater than 10 µM; on Adenosine receptor A3 it was greater than 10 µM; in [6], greater than 30 µM; in [7], greater than 30 µM; at Prothrombin, greater than 30 µM; in experiment [8], greater than 30 µM.

Turning to `Cc1c(C(C)C)c(=O)n(-c2ccccc2)n1C` [PROPYPHENAZONE], the concentration at half-maximal activity (AC50) (in experiment [1]; in experiment [2]; in experiment [3]; in experiment [4]; in experiment [5]; at Progesterone receptor) was greater than 30 µM each time. The AC50 on D(3) dopamine receptor was greater than 30 µM; on Adenosine receptor A3 it was 21.9 µM; in experiment [6] it was greater than 30 µM; in [7], greater than 30 µM; at Prothrombin, greater than 30 µM; in [8], greater than 30 µM.

With `CC(C)=CCC/C(C)=C/CC/C(C)=C/CC/C(C)=C/CC1=C(C)C(=O)c2ccccc2C1=O` [MENATETRENONE], the AC50 in experiment [1] was 0.78 µM; in experiment [2], 8.53 µM; in experiment [3], greater than 10 µM; in [4], 5.09 µM; in [5] it was greater than 30 µM; on Progesterone receptor it was 13.5 µM. Besides, the AC50 is 2.91 µM at D(3) dopamine receptor; 4.72 µM at Adenosine receptor A3; greater than 30 µM in experiment [6]; greater than 30 µM in experiment [7]; greater than 30 µM at Prothrombin; greater than 30 µM in [8].

`CN1CCCC(CC2c3ccccc3Sc3ccccc32)C1` (configuration not stated) [METHIXENE]: the AC50 in [1] was greater than 30 µM; in experiment [2] it was greater than 30 µM; in experiment [3], 4.82 µM; in [4], greater than 30 µM; in experiment [5], greater than 30 µM; on Progesterone receptor, greater than 30 µM. The AC50 on D(3) dopamine receptor was 0.742 µM; at Adenosine receptor A3 it was greater than 30 µM; in experiment [6] it was 3.1 µM; in experiment [7], 18.2 µM; on Prothrombin it was greater than 30 µM; in experiment [8] it was 0.0054 µM.

`O=C1Nc2ccccc2C1(c1ccc(O)cc1)c1ccc(O)cc1` [OXYPHENISATINE]: the AC50 (in experiment [1]; in [2]; in experiment [3]; in [4]; in [5]; at Progesterone receptor) was greater than 30 µM each time. Further, the AC50 at D(3) dopamine receptor was greater than 30 µM; at Adenosine receptor A3, 5.01 µM; in [6] it was 10.1 µM; in [7] it was greater than 30 µM; at Prothrombin, greater than 30 µM; in experiment [8], 11.9 µM.

In the case of `COC(=O)N(C)c1c(N)nc(-c2nn(Cc3ccccc3F)c3ncccc23)nc1N` [RIOCIGUAT], the AC50 (in experiment [1]; in experiment [2]; in experiment [3]; in experiment [4]; in experiment [5]; on Progesterone receptor) was greater than 30 µM throughout. Besides, the AC50 was greater than 30 µM on D(3) dopamine receptor; 13.9 µM at Adenosine receptor A3; 5 µM in [6]; greater than 30 µM in experiment [7]; greater than 30 µM on Prothrombin; greater than 30 µM in experiment [8].

On to `Cc1ncc(CO)c(CO)c1O` [PYRIDOXINE], for which the AC50 in [1] is greater than 3 µM; in [2], greater than 30 µM; in experiment [3] it was greater than 30 µM; in experiment [4], greater than 30 µM; in experiment [5], greater than 30 µM; at Progesterone receptor, greater than 30 µM. In addition, the AC50 (at D(3) dopamine receptor; on Adenosine receptor A3; in experiment [6]; in [7]; at Prothrombin; in experiment [8]) was greater than 30 µM each time.

Regarding `CN1C(C(=O)Nc2ccccn2)=C(OC(=O)/C=C/c2ccccc2)c2ccccc2S1(=O)=O` [PIROXICAM CINNAMATE], the AC50 (in [1]; in experiment [2]; in [3]; in experiment [4]; in experiment [5]; at Progesterone receptor) was greater than 30 µM throughout. The AC50 (on D(3) dopamine receptor; on Adenosine receptor A3; in experiment [6]; in [7]; at Prothrombin; in experiment [8]) was greater than 30 µM in each case.

For `CCOc1ccc(Cc2nccc3cc(OCC)c(OCC)cc23)cc1OCC` [ETHAVERINE], the AC50 in experiment [1] was greater than 10 µM; in experiment [2], 0.466 µM; in experiment [3] it was 20.9 µM; in experiment [4], 3.69 µM; in experiment [5], greater than 30 µM; on Progesterone receptor, greater than 30 µM. The AC50 is 25.5 µM on D(3) dopamine receptor; 3.11 µM on Adenosine receptor A3; 13 µM in experiment [6]; greater than 30 µM in experiment [7]; greater than 30 µM at Prothrombin; greater than 30 µM in experiment [8].

As to `CC(C)NC[C@H](O)COc1ccc(CCOCC2CC2)cc1` [LEVOBETAXOLOL], the AC50 (in experiment [1]; in experiment [2]; in [3]; in [4]; in experiment [5]; on Progesterone receptor) was greater than 30 µM in each case. Moreover, the AC50 (at D(3) dopamine receptor; on Adenosine receptor A3; in experiment [6]; in [7]; on Prothrombin; in experiment [8]) was greater than 30 µM throughout.

As to `CN1CCc2c(c3ccccc3n2Cc2ccccc2)C1` [MEBHYDROLIN], the AC50 in experiment [1] is greater than 30 µM; in experiment [2], greater than 30 µM; in [3], 0.533 µM; in experiment [4], greater than 30 µM; in experiment [5], greater than 30 µM; at Progesterone receptor, greater than 30 µM. The AC50 at D(3) dopamine receptor was 1.19 µM; at Adenosine receptor A3, greater than 30 µM; in experiment [6], 1 µM; in [7] it was 28.5 µM; on Prothrombin, greater than 30 µM; in [8] it was 0.268 µM.

The values are drawn from ChEMBL document CHEMBL5291721, “A preclinical secondary pharmacology resource illuminates target-adverse drug reaction associations of marketed drugs” (Nat Commun, 2023).
